Biological target: T1, human PD-L1 / human PD-1 interaction (Homo sapiens, UniProt Q9NZQ7)
T1 construct: purchased R&D (PD-L1); ACRO Biosystems (PD-1, biotin)
Assay: ELISA of PD-1/PD-L1 interaction
Type: binding
Outline: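 Plates coated with 1 μg/mL human PD-L1 and blocked with BSA; serially diluted (1:5) compounds plus biotinylated human PD-1 (0.3 μg/mL) incubated 1 h at 37° C. Bound PD-1 detected with streptavidin-HRP/TMB, absorbance at 450 nm.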

T1 sequence (Q9NZQ7 19-239 limits assumed): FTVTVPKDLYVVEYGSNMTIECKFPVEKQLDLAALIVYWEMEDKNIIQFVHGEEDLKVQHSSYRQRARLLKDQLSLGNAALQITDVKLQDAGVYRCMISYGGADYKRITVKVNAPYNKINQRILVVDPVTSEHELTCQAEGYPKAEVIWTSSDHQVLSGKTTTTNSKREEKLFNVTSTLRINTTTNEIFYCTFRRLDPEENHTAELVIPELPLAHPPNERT

| SMILES | IC50 [nM] |
| --- | --- |
| Cc1c(OCCCN2CCC(O)CC2)cccc1-c1cccc2c1CC[C@@H]2Oc1cc(OCc2cncc(C#N)c2)c(CN2CCC(O)CC2)cc1Cl | < 5 |
| N#Cc1cncc(COc2cc(O[C@H]3CCc4c(-c5cccc(OCCCN6CC7(CC(F)C7)C6)c5Cl)cccc43)c(Cl)cc2CN[C@@H]2CCCC[C@@H]2O)c1 | < 5 |
| CCOc1cc(O[C@H]2CCc3c(-c4cccc(OCCCN5C(C)CC5(C)C)c4C)cccc32)c(Cl)cc1CNC[C@@H]1CCC(=O)N1 (stereo partly shown) | < 5 |
| COC(=O)C1(O)CCN(CCCOc2cccc(-c3cccc4c3CC[C@@H]4Oc3cc(OCc4cncc(C#N)c4)c(CN[C@H](C(=O)O)[C@@H](C)O)cc3Cl)c2C)C1 (stereo partly shown) | < 5 |
| Cc1c(OCCCN2CCC(O)CC2)cccc1-c1cccc2c1CC[C@@H]2Oc1cc(OCc2cncc(C#N)c2)c(CN2CC(C(=O)O)C2)cc1Cl | < 5 |
| N#Cc1cncc(COc2cc(O[C@H]3CCc4c(-c5cccc(OCCCN6CC(O)C6)c5Cl)cccc43)c(Cl)cc2CN2CC(O)C2)c1 | < 5 |
| Cc1c(OCCCN2CC[C@H](F)C2)cccc1-c1cccc2c1CC[C@@H]2Oc1cc(OCc2cncc(C#N)c2)c(CN[C@@H]2CCCC[C@@H]2O)cc1Cl | < 5 |
| Cc1c(OCCCN2C(C)CCC2C)cccc1-c1cccc2c1CC[C@@H]2Oc1cc(OCc2cc(C#N)cc(C#N)c2)c(CN[C@H]2CCC(=O)NC2)cc1Cl (stereo partly shown) | < 5 |
| Cc1c(OCCCN2CC3(CCC3)C2)cccc1-c1cccc2c1CC[C@@H]2Oc1cc(OCc2cc(C#N)cc(C#N)c2)c(CNC[C@@H]2CCC(=O)N2)cc1Cl | < 5 |
| Cc1c(OCCCN2CCC(O)CC2)cccc1-c1cccc2c1CC[C@@H]2Oc1cc(OCc2cncc(C#N)c2)c(CNCC2CCC(=O)N2)cc1Cl (stereo partly shown) | < 5 |
| Cc1c(OCCCN2CC[C@H](O)[C@H](F)C2)cccc1-c1cccc2c1CC[C@@H]2Oc1cc(OCc2cncc(C#N)c2)c(CN[C@H](C(=O)O)[C@@H](C)O)cc1Cl | < 5 |
| Cc1c(OCCCN2CCCC[C@H]2C)cccc1-c1cccc2c1CC[C@@H]2Oc1cc(OCc2cc(C#N)cc(C#N)c2)c(CNC[C@H]2CCC(=O)N2)cc1Cl | < 5 |
| Cc1c(OCCCN2CCC(O)CC2)cccc1-c1cccc2c1CC[C@@H]2Oc1cc(OCc2cncc(C#N)c2)c(CN[C@H](C(N)=O)[C@@H](C)O)cc1Cl | < 5 |
| Cc1c(OCCCN2CCC(O)CC2)cccc1-c1cccc2c1C[C@H](F)[C@@H]2Oc1cc(OCc2cncc(C#N)c2)c(CN[C@H](C(=O)O)[C@@H](C)O)cc1Cl | < 5 |
| Cc1c(OCCCN2CCC(O)CC2)cccc1-c1cccc2c1CCC2Oc1cc(OCc2cc(C#N)cc(C#N)c2)c(CN[C@@H](CO)C(=O)O)cc1Cl (stereo partly shown) | < 5 |
| Cc1c(OCCCN2CCCC2C(C)C)cccc1-c1cccc2c1CC[C@@H]2Oc1cc(OCc2cc(C#N)cc(C#N)c2)c(CN[C@H]2CCC(=O)NC2)cc1Cl (stereo partly shown) | 5 to 500 |
| Cc1c(OCCCN2CCC(F)(F)CC2)cccc1-c1cccc2c1CC[C@@H]2Oc1cc(OCc2cncc(C#N)c2)c(CN[C@H](C(=O)O)[C@@H](C)O)cc1Cl | 5 to 500 |
| Cc1c(OCCCN2CCC(O)CC2)cccc1-c1cccc2c1CC[C@@H]2Oc1cc(OCc2cncc(C#N)c2)c(CN2CC[C@H](O)C2)cc1Cl | < 5 |
| Cc1c(OCCCN2CCC(F)CC2)cccc1-c1cccc2c1CC[C@@H]2Oc1cc(OCc2cncc(C#N)c2)c(CNCCS(=O)(=O)O)cc1Cl | < 5 |
| Cc1c(OCCCN2CC[C@@H](F)C2)cccc1-c1cccc2c1CC[C@@H]2Oc1cc(OCc2cncc(C#N)c2)c(CN[C@@H]2CCCC[C@@H]2O)cc1Cl | < 5 |
| N#Cc1cncc(COc2cc(O[C@H]3CCc4c(-c5cccc(OCCCN6CCC(F)CC6)c5Cl)cccc43)c(Cl)cc2CN2CC[C@@H](O)C2)c1 | < 5 |
| Cc1c(OCCCN2CCC(O)CC2)cccc1-c1cccc2c1CC[C@@H]2Oc1cc(OCc2cncc(C#N)c2)c(CNC2(C(=O)O)CCC2)cc1Cl | < 5 |

| SMILES | IC50 [nM] |
| --- | --- |
| CCOc1cc(O[C@H]2CCc3c(-c4cccc(OCCCN5CC[C@@H](O)C5)c4C)cccc32)c(Cl)cc1CN[C@H](C(=O)O)[C@@H](C)O | < 5 |
| CC1(C)CC(O)CCN1CCCOc1cccc(-c2cccc3c2CC[C@@H]3Oc2cc(OCc3cncc(C#N)c3)c(CN[C@@H]3CCCC[C@@H]3O)cc2Cl)c1Cl (stereo partly shown) | < 5 |
| N#Cc1cncc(COc2cc(O[C@H]3CCc4c(-c5cccc(OCCCN6CCCCC6)c5Cl)cccc43)c(Cl)cc2CN[C@@H]2CCCC[C@@H]2O)c1 | < 5 |
| CCOc1cc(O[C@H]2CCc3c(-c4cccc(OCCCN5CC[C@@H](O)C5)c4C)cccc32)c(Cl)cc1CNC(CO)CO | < 5 |
| N#Cc1cncc(COc2cc(O[C@H]3CCc4c(-c5cccc(OCCCN6CC[C@@H](F)C6)c5Cl)cccc43)c(Cl)cc2CN[C@@H]2CCCC[C@@H]2O)c1 | < 5 |
| Cc1c(OCCCN2CCC(O)CC2)cccc1-c1cccc2c1CC[C@@H]2Oc1cc(OCc2cncc(C#N)c2)c(CN[C@@H](CO)C(N)=O)cc1Cl | < 5 |
| CN1CCC(COc2cccc(-c3cccc4c3CC[C@@H]4Oc3cc(OCc4cncc(C#N)c4)c(CN[C@@H]4CCCC[C@@H]4O)cc3Cl)c2Cl)C1 (stereo partly shown) | < 5 |
| Cc1c(OCCCN2CCC(O)CC2)cccc1-c1cccc2c1CC[C@@H]2Oc1cc(OCc2cncc(C#N)c2)c(CN[C@@H]2CCC[C@H]2O)cc1Cl | < 5 |
| C[C@@](CO)(NCc1cc(Cl)c(O[C@H]2CCc3c(-c4cccc(OCCCN5CC(O)C5)c4Cl)cccc32)cc1OCc1cncc(C#N)c1)C(=O)O [drawing 79] | < 5 |
| N#Cc1cncc(COc2cc(O[C@H]3CCc4c(-c5cccc(OCCCN6CC7(CC(F)C7)C6)c5Cl)cccc43)c(Cl)cc2CNC[C@@H]2CCC(=O)N2)c1 | < 5 |
| N#Cc1cncc(COc2cc(O[C@H]3CCc4c(-c5cccc(OCCCN6CCC(F)CC6)c5Cl)cccc43)c(Cl)cc2CN[C@H]2CCOC[C@@H]2O)c1 [drawing 235] | < 5 |
| CC(CO)(NCc1cc(Cl)c(O[C@H]2CCc3c(-c4cccc(OCCCN5CCOCC5)c4Cl)cccc32)cc1OCc1cncc(C#N)c1)C(=O)O (stereo partly shown) | < 5 |
| Cc1c(OCCCN2CCC(O)CC2)cccc1-c1cccc2c1CC[C@@H]2Oc1cc(OCc2cncc(C#N)c2)c(CN[C@H](C(=O)NS(C)(=O)=O)[C@@H](C)O)cc1Cl | < 5 |
| CCOc1cc(O[C@H]2CCc3c(-c4cccc(OCCCN5CC[C@@H](O)C5)c4C)cccc32)c(Cl)cc1CNC(C)(CO)CO | < 5 |
| N#Cc1cncc(COc2cc(O[C@H]3CCc4c(-c5cccc(OCCCN6CCC(F)CC6)c5Cl)cccc43)c(Cl)cc2CN[C@@H]2CC[C@H]2O)c1 | < 5 |
| CC(CO)(NCc1cc(Cl)c(O[C@H]2CCc3c(-c4cccc(OCCCN5CCCCC5)c4Cl)cccc32)cc1OCc1cncc(C#N)c1)C(=O)O (stereo partly shown) | < 5 |
| Cc1c(OCCCN2CCC(O)CC2)cccc1-c1cccc2c1C[C@@H](F)[C@@H]2Oc1cc(OCc2cncc(C#N)c2)c(CN[C@@H](CO)C(=O)O)cc1Cl | < 5 |
| Cc1c(OCCCN2CCC(O)CC2)cccc1-c1cccc2c1CCC2Oc1cc(OCc2cc(C#N)cc(C#N)c2)c(CN[C@@H]2CCCC[C@@H]2O)cc1Cl (stereo partly shown) | < 5 |
| CCN1CCC(COc2cccc(-c3cccc4c3CC[C@@H]4Oc3cc(OCc4cncc(C#N)c4)c(CNC[C@@H]4CCC(=O)N4)cc3Cl)c2Cl)C1 (stereo partly shown) | < 5 |
| N#Cc1cncc(COc2cc(O[C@H]3CCc4c(-c5cccc(OCCCN6CC(O)C6)c5Cl)cccc43)c(Cl)cc2CN2CCCC3(C2)NC(=O)NC3=O)c1 (stereo partly shown) | < 5 |
| N#Cc1cncc(COc2cc(O[C@H]3CCc4c(-c5cccc(OCCCN6CCC(F)CC6)c5Cl)cccc43)c(Cl)cc2CNCC2CNC(=O)C2)c1 (stereo partly shown) | < 5 |

Source: patent US20210236476A1, “METHODS OF TREATING CANCER WITH SMALL MOLECULE PD-L1 INHIBITORS” (CHEMOCENTRYX, INC., priority 2018, published 2021)
